Where a name gives a salt, the structure may show the parent alone. Read-outs that look alike come from different tables or passages of the source.
Columns and labels:
[1] = ICH toxicity limits, cited from earlier work; for Limits: residual solvent concentration in carrier; for Permissible Daily Exposure: residual solvent
[2] = SABRE catalyst in acetone extraction study (proton NMR of both phases); type: physicochemical; conditions: 1 ml Acetone-d6, 6 ml MTBE, 1 ml D2O
[3] = type: physicochemical; conditions: for extraction efficiency (output/input acetone concentration in water): organic wash:aqueous 4:1; for extraction efficiency, comparison in words: with and without pyruvate in solution
[4] = Liquid-liquid purification system, Example 1 (samples of phases analyzed)
Procedure: A system was prepared comprising a first vessel, a second vessel fluidly connected to the first vessel, and a third vessel fluidly connected to the second vessel. The vessels and the fluid path were covered by a defined magnetic field provided by solenoids to prevent undesired hyperpolarisation loss during the processing of a solution through the system.
The mixture was bubbled with nitrogen gas, and 1.0 mL of base (400 mM NaOD in D2O) was injected into Vessel 1 to cleave the pyruvate ester into sodium pyruvate and the corresponding unbonded sidearm.
The solution in Vessel 1 was then subjected to a first washing step. 20 mL of organic washing solvent (e.g., diethyl ether or tert-butyl methyl ether) were injected into the solution, and then agitated using nitrogen gas bubbling. The mixture was then allowed to settle for about 10 seconds until a clear phase separation between the aqueous phase (lower phase) and the organic phase (upper phase) had formed.
The aqueous phase from Vessel 1 was pumped into Vessel 2, which had been prefilled with 20 mL of the same organic washing solvent (e.g., diethyl ether or tert-butyl methyl ether). The mixture was again agitated using nitrogen gas bubbling, and allowed to settle for about 10 seconds until a clear phase separation between the aqueous phase (lower phase) and the organic phase (upper phase) had formed. […]

| Compound | Limits [1] | Permissible Daily Exposure [1] | also measured |
| --- | --- | --- | --- |
| CC(Cl)(Cl)Cl [1,1,1-Trichloroethane] | 1500 ppm | – | – |
| ClC=C(Cl)Cl [1,1,2-Trichloroethene] | 80 ppm | 0.8 mg/day | – |
| C=C(Cl)Cl [1,1-Dichloroethene] | 8 ppm | – | – |
| ClCCCl [1,2-Dichloroethane] | 5 ppm | – | – |
| COCCOC [1,2-Dimethoxyethane] | 100 ppm | 1.0 mg/day | – |
| CCCCCO [1-Pentanol] | 5000 ppm | 50 mg/day | – |
| CCOCCO [2-Ethoxyethanol] | 160 ppm | 1.6 mg/day | – |
| CC(=O)O [Acetic acid] | 5000 ppm | – | – |
| CC(C)=O [Acetone] | 5000 ppm | 50 mg/day | concentration in the aqueous phase after washing [2]: lower in the aqueous phase after washing |
| CC#N [Acetonitrile] | 410 ppm | 4.1 mg/day | – |
| COc1ccccc1 [Anisole] | 5000 ppm | 50 mg/day | – |
| CCCCOC(C)=O [Butyl acetate] | 5000 ppm | 50 mg/day | – |
| ClC(Cl)(Cl)Cl [Carbon tetrachloride] | 4 ppm | – | – |
| C1CCCCC1 [Cyclohexane] | 3880 ppm | 38.8 mg/day | – |
| ClCCl [Dichloromethane] | 600 ppm | 6.0 mg/day | extraction efficiency (output/input acetone concentration in water) ([3]; 2000 mM acetone, With Pyruvate): 0.04; extraction efficiency (output/input acetone concentration in water) ([3]; 9000 mM acetone, No Pyruvate): 0.07; extraction efficiency (output/input acetone concentration in water) ([3]; 9000 mM acetone, With Pyruvate): 0.06; extraction efficiency, comparison in words [3]: best extraction efficiency |
| CCOCC [Diethyl ether] | – | – | extraction efficiency (output/input acetone concentration in water) ([3]; 9000 mM acetone, No Pyruvate): 0.29; extraction efficiency, comparison in words [3]: effective extraction efficiency |
| C[S+](C)[O-] [Dimethyl sulfoxide] | 5000 ppm | 50 mg/day | – |

| Compound | Limits [1] | Permissible Daily Exposure [1] | also measured |
| --- | --- | --- | --- |
| CCO [Ethanol] | 5000 ppm | 50 mg/day | – |
| CCOC=O [Ethyl formate] | 5000 ppm | 50 mg/day | – |
| NC=O [Formamide] | 220 ppm | 2.2 mg/day | – |
| CCCCCCC [Heptane] | 5000 ppm | 50 mg/day | – |
| CCCCCC [Hexane] | 290 ppm | 2.9 mg/day | – |
| COC(C)=O [Methyl acetate] | 5000 ppm | 50 mg/day | – |
| CCCCC(C)=O [Methylbutyl ketone] | 50 ppm | 0.5 mg/day | – |
| CC1CCCCC1 [Methylcyclohexane] | 1180 ppm | 11.8 mg/day | – |
| CC(=O)CC(C)C [Methylisobutyl ketone] | 5000 ppm | 50 mg/day | – |
| CN(C)C=O [N,N-Dimethylformamide] | 880 ppm | – | – |
| CN1CCCC1=O [N-Methylpyrrolidone] | 530 ppm | 15.3 mg/day | – |
| CCCOC(C)=O [Propyl acetate] | 5000 ppm | 50 mg/day | – |
| c1ccc2c(c1)CCCC2 [Tetralin] | 100 ppm | 1.0 mg/day | – |
| CC(=O)C(=O)[O-].[Na+] [sodium pyruvate] | – | – | pH ([4]; Vessel 1, after hydrolysis and phosphate buffer, acetone/D2O): 6-9; pH ([4]; Vessel 3, final samples): 6-9 |
| COC(C)(C)C [tert-Butylmethyl ether] | 5000 ppm | 50 mg/day | extraction efficiency (output/input acetone concentration in water) ([3]; 2000 mM acetone, No Pyruvate): 0.33; extraction efficiency (output/input acetone concentration in water) ([3]; 2000 mM acetone, With Pyruvate): 0.27; extraction efficiency (output/input acetone concentration in water) ([3]; 9000 mM acetone, No Pyruvate): 0.24; extraction efficiency (output/input acetone concentration in water) ([3]; 9000 mM acetone, With Pyruvate): 0.23; extraction efficiency, comparison in words [3]: effective extraction efficiency |
| IrIMes(COD) PF6 | – | – | concentration in the aqueous phase after washing [2]: lower in the aqueous phase after washing; observability in NMR spectrum of the phases [2]: observable only in one of the phases and not in the other |
| Xylene | 2170 ppm | 21.7 mg/day | – |

From patent US20240299593A1, “SYSTEMS AND METHODS FOR GENERATION OF HYPERPOLARIZED MATERIALS” (NVISION IMAGING TECHNOLOGIES GMBH, priority 2021, published 2024)
